Measurements: patent US20040156869A1, “2-substituted quinazolin-4-ylamine analogues” (Neurogen Corporation, priority 2002, published 2004)

Target: human capsaicin receptor (VR1) (Homo sapiens, UniProt Q8NER1)
Test: Capsaicin receptor binding assay ([3H]RTX competition, VR1-transfected HEK293 membranes)

human capsaicin receptor (VR1), sequence (Q8NER1 whole entry): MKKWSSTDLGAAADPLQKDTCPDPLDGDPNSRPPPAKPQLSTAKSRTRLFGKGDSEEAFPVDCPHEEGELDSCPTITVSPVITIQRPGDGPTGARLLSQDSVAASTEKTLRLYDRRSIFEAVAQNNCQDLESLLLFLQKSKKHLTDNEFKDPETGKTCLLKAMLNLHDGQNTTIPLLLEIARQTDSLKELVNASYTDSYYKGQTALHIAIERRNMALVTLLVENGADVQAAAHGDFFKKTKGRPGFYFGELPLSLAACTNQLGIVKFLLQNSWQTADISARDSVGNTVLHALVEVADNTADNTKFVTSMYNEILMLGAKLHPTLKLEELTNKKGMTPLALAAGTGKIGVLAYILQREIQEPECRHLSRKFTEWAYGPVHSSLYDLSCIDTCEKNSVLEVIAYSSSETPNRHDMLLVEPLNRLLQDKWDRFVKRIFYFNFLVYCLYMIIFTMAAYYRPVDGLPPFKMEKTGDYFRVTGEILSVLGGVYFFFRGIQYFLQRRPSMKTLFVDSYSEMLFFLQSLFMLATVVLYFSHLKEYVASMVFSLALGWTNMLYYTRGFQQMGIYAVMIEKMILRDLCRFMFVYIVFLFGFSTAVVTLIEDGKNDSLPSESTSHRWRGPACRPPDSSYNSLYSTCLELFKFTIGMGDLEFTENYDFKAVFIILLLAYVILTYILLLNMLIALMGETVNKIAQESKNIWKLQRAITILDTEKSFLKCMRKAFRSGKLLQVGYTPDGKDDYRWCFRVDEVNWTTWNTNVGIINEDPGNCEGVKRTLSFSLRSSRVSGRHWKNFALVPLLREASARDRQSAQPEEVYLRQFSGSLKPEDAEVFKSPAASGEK

| SMILES | Ki |
| --- | --- |
| CN1CCN(CCCNC(=O)c2nc(Nc3ccc(C(F)(F)F)cc3)c3ccc(-c4ncccc4C(F)(F)F)nc3n2)CC1 [Compound 433, 4-(4-Trifluoromethyl-phenylamino)-7-(3-trifluoromethyl-pyridin-2-yl)-pyrido[2,3-d]pyrimidine-2-carboxylic acid [3-(4-methyl-piperazin-1-yl)-propyl]-amide] | < 1000 nM |
| CCN(Cc1nc(Nc2ccc(C(F)(F)F)nc2)c2ccc(-c3ncccc3C(F)(F)F)cc2n1)C1CCCCC1 [Compound 383, [2-[(Cyclohexyl-ethyl-amino)-methyl]-7-(3-trifluoromethyl-pyridin-2-yl)-quinazolin-4-yl]-(6-trifluoromethyl-pyridin-3-yl)-amine] | < 1000 nM |
| CC(C)COCc1nc(Nc2ccc(F)c(F)c2)c2ccc(-c3ncccc3C(F)(F)F)nc2n1 [Compound 252, (3,4-Difluoro-phenyl)-[2-isobutoxymethyl-7-(3-trifluoromethyl-pyridin-2-yl)-pyrido[2,3-d]pyrimidin-4-yl]-amine] | < 1000 nM |
| CC(C)COCc1nc(Nc2ccc(C(F)(F)F)cc2)c2ccc(-c3ncccc3C(F)(F)F)nc2n1 [Compound 164, [2-Isobutoxymethyl-7-(3-trifluoromethyl-pyridin-2-yl)-pyrido[2,3-d]pyrimidin-4-yl]-(4-trifluoromethyl-phenyl)-amine] | < 1000 nM |
| FC(F)(F)c1ccc(Nc2nc(CN3CCN(CCN4CCOCC4)CC3)nc3cc(-c4ncccc4C(F)(F)F)ccc23)cc1 [Compound 518, [2-[4-(2-Morpholin-4-yl-ethyl)-piperazin-1-ylmethyl]-7-(3-trifluoromethyl-pyridin-2-yl)-quinazolin-4-yl]-(4-trifluoromethyl-phenyl)-amine] | < 1000 nM |
| CC1CCCN(CCCc2nc(Nc3ccc(C(F)(F)F)cc3)c3ccc(-c4ncccc4C(F)(F)F)cc3n2)C1 (stereo not drawn) [Compound 572, [2-[3-(3-Methyl-piperidin-1-yl)-propyl]-7-(3-trifluoromethyl-pyridin-2-yl)-quinazolin-4-yl]-(4-trifluoromethyl-phenyl)-amine] | < 1000 nM |
| Cc1cccnc1-c1ccc2c(Nc3ccc(S(C)(=O)=O)cc3)nc(COCC(C)C)nc2n1 [Compound 216, [2-Isobutoxymethyl-7-(3-methyl-pyridin-2-yl)-pyrido[2,3-d]pyrimidin-4-yl]-(4-methanesulfonyl-phenyl)-amine] | < 1000 nM |
| CCOCc1nc(Nc2ccc(C(F)(F)F)c(C)c2)c2ccc(-c3ncccc3Cl)nc2n1 [Compound 184, [7-(3-Chloro-pyridin-2-yl)-2-ethoxymethyl-pyrido[2,3-d]pyrimidin-4-yl]-(3-methyl-4-trifluoromethyl-phenyl)-amine] | < 1000 nM |
| FC(F)(F)c1ccc(Nc2nc(CCN3CCCCC3)nc3cc(-c4ncccc4C(F)(F)F)ccc23)cc1 [Compound 399, [2-Piperidin-1-ylethyl-7-(3-trifluoromethyl-pyridin-2-yl)-quinazolin-4-yl]-(4-trifluoromethyl-phenyl)-amine] | < 1000 nM |
| CCOC(=O)C1CCCN(Cc2nc(Nc3ccc(C(F)(F)F)cc3)c3ccc(-c4ncccc4C(F)(F)F)cc3n2)C1 (stereo not drawn) [Compound 501, 1-[4-(4-Trifluoromethyl-phenylamino)-7-(3-trifluoromethyl-pyridin-2-yl)-quinazolin-2-ylmethyl]-piperidine-3-carboxylic acid ethyl ester] | < 1000 nM |
| CCN(CC)CCCC(C)NC(=O)c1nc(Nc2ccc(C(F)(F)F)cc2)c2ccc(-c3ncccc3C(F)(F)F)nc2n1 (stereo not drawn) [Compound 446, 4-(4-Trifluoromethyl-phenylamino)-7-(3-trifluoromethyl-pyridin-2-yl)-pyrido[2,3-d]pyrimidine-2-carboxylic acid (4-diethylamino-1-methyl-butyl)-amide] | < 1000 nM |
| FC(F)(F)c1ccc(Nc2nc(CCN3CCCCCCC3)nc3cc(-c4ncccc4C(F)(F)F)ccc23)cc1 [Compound 405, [2-Azocan-1-ylethyl-7-(3-trifluoromethyl-pyridin-2-yl)-quinazolin-4-yl]-(4-trifluoromethyl-phenyl)-amine] | < 1000 nM |
| COCc1nc(Nc2ccc(C(C)C)cc2)c2ccc(-c3ncccc3C(F)(F)F)cc2n1 [Compound 72, (4-Isopropyl-phenyl)-[2-methoxymethyl-7-(3-trifluoromethyl-pyridin-2-yl)-quinazolin-4-yl]-amine] | < 1000 nM |

Results, then the molecule that gave them:

| Ki | SMILES |
| --- | --- |
| < 1000 nM | Cc1cccnc1-c1ccc2c(Nc3ccc(C(F)(F)F)cc3)nc(CN3CCCC(C)(C)C3)nc2n1 [Compound 746, [2-(3,3-Dimethyl-piperidin-1-ylmethyl)-7-(3-methyl-pyridin-2-yl)-pyrido[2,3-d]pyrimidin-4-yl]-(4-trifluoromethyl-phenyl)-amine] |
| < 1000 nM | CC(C)c1ccc(Nc2nc(CN3C[C@@H](C)O[C@H](C)C3)nc3cc(-c4ncccc4C(F)(F)F)ccc23)cc1 [Compound 652, (R,R)-[2-(2,6-Dimethyl-morpholin-4-ylmethyl)-7-(3-trifluoromethyl-pyridin-2-yl)-quinazolin-4-yl]-(4-isopropyl-phenyl)-amine] |
| < 1000 nM | Cn1ccnc1CN1CCC(c2nc(Nc3ccc(C(F)(F)F)cc3)c3ccc(-c4ncccc4C(F)(F)F)cc3n2)CC1 [Compound 692, [2-[1-(1-Methyl-1H-imidazol-2-ylmethyl)-piperidin-4-yl]-7-(3-trifluoromethyl-pyridin-2-yl)-quinazolin-4-yl]-(4-trifluoromethyl-phenyl)-amine] |
| < 1000 nM | C[C@H]1CN(Cc2nc(Nc3ccc(C(C)(C)C)nc3)c3ccc(-c4ncccc4Cl)cc3n2)C[C@H](C)O1 [Compound 605, (S,S)-(6-tert-Butyl-pyridin-3-yl)-[7-(3-chloro-pyridin-2-yl)-2-(2,6-dimethyl-morpholin-4-ylmethyl)-quinazolin-4-yl]-amine] |
| < 1000 nM | Cc1cccnc1-c1cnc2c(Nc3ccc(C(F)(F)F)cc3)nc(CN3C[C@@H](C)O[C@@H](C)C3)nc2c1 [Compound 603, [2-(2,6-Dimethyl-morpholin-4-ylmethyl)-7-(3-methyl-pyridin-2-yl)-pyrido[3,2-d]pyrimidin-4-yl]-(4-trifluoromethyl-phenyl)-amine (cis)] |
| < 1000 nM | CC1CCCCN1Cc1cc(Nc2ccc(C(F)(F)F)cc2)c2ccc(-c3ncccc3C(F)(F)F)nc2n1 (stereo not drawn) [Compound 810, [2-(2-Methyl-piperidin-1-ylmethyl)-7-(3-trifluoromethyl-pyridin-2-yl)-[1,8]naphthyridin-4-yl]-(4-trifluoromethyl-phenyl)-amine] |
| < 1000 nM | C[C@H]1CN(Cc2nc(Nc3ccc(C(C)(C)C)cc3)c3ccc(-c4ncccc4Cl)cc3n2)CCO1 [Compound 647, (S)-(4-tert-Butyl-phenyl)-[7-(3-chloro-pyridin-2-yl)-2-(2-methyl-morpholin-4-ylmethyl)-quinazolin-4-yl]-amine] |
| < 1000 nM | C[C@@H]1CN(Cc2nc(Nc3ccc(C(F)(F)F)nc3)c3ccc(-c4ncccc4Cl)cc3n2)C[C@H](C)O1 [Compound 599, [7-(3-Chloro-pyridin-2-yl)-2-(2,6-dimethyl-morpholin-4-ylmethyl)-quinazolin-4-yl]-(6-trifluoromethyl-pyridin-3-yl)-amine (cis)] |
| < 1000 nM | COCCN(CCOC)Cc1cc(Nc2ccc(C(F)(F)F)cc2)c2ccc(-c3ncccc3C(F)(F)F)nc2n1 [Compound 775, [2-{[Bis-(2-methoxy-ethyl)-amino]-methyl}-7-(3-trifluoromethyl-pyridin-2-yl)-[1,8]naphthyridin-4-yl]-(4-trifluoromethyl-phenyl)-amine] |
| < 1000 nM | CC1CCCN(Cc2nc(Nc3ccc(C(F)(F)F)cc3)c3ncc(-c4ncccc4C(F)(F)F)cc3n2)C1 (stereo not drawn) [Compound 669, [2-(3-Methyl-piperidin-1-ylmethyl)-7-(3-trifluoromethyl-pyridin-2-yl)-pyrido[3,2-d]pyrimidin-4-yl]-(4-trifluoromethyl-phenyl)-amine] |
| < 1000 nM | CC(C)c1ccc(Nc2nc(CN3CCO[C@H](C)C3)nc3cc(-c4ncccc4Cl)ccc23)cc1 [Compound 673, (R)-[7-(3-Chloro-pyridin-2-yl)-2-(2-methyl-morpholin-4-ylmethyl)-quinazolin-4-yl]-(4-isopropyl-phenyl)-amine] |
| < 1000 nM | Cc1cccnc1-c1ccc2c(Nc3ccc(C(F)(F)F)cc3)nc(C3CN(C(=O)OC(C)(C)C)C3)nc2n1 [Compound 727, 3-[7-(3-Methyl-pyridin-2-yl)-4-(4-trifluoromethyl-phenylamino)-pyrido[2,3-d]pyrimidin-2-yl]-azetidine-1-carboxylic acid tert-butyl ester] |
| < 1000 nM | CCCOC(=O)N1CCN(CCc2nc(Nc3ccc(C(F)(F)F)cc3)c3ccc(-c4ncccc4C(F)(F)F)cc3n2)CC1 [Compound 585, 4-{2-[4-(4-Trifluoromethyl-phenylamino)-7-(3-trifluoromethyl-pyridin-2-yl)-quinazolin-2-yl]-ethyl}-piperazine-1-carboxylic acid propyl ester] |
| < 1000 nM | CN(Cc1ccccc1)Cc1nc(Nc2ccc(C(F)(F)F)nc2)c2ccc(-c3ncccc3C(F)(F)F)cc2n1 [Compound 575, [2-[(Benzyl-methyl-amino)-methyl]-7-(3-trifluoromethyl-pyridin-2-yl)-quinazolin-4-yl]-(6-trifluoromethyl-pyridin-3-yl)-amine] |
| < 1000 nM | CC1(C)CN(Cc2nc(Nc3ccc(C(F)(F)F)cc3)c3ccc(-c4ncccc4C(F)(F)F)cc3n2)CCO1 [Compound 739, [2-(2,2-Dimethyl-morpholin-4-ylmethyl)-7-(3-trifluoromethyl-pyridin-2-yl)-quinazolin-4-yl]-(4-trifluoromethyl-phenyl)-amine] |
| < 1000 nM | Cc1cccnc1-c1ccc2c(Nc3ccc(C(F)(F)F)cc3)nc(CN3CCCC(C)(C)C3)nc2c1 [Compound 731, [2-(3,3-Dimethyl-piperidin-1-ylmethyl)-7-(3-methyl-pyridin-2-yl)-quinazolin-4-yl]-(4-trifluoromethyl-phenyl)-amine] |
| < 1000 nM | FC(F)(F)c1ccc(Nc2nc(CN3C=NCCC3)nc3cc(-c4ncccc4C(F)(F)F)ccc23)cc1 [Compound 671, [2-(5,6-Dihydro-4H-pyrimidin-1-ylmethyl)-7-(3-trifluoromethyl-pyridin-2-yl)-quinazolin-4-yl]-(4-trifluoromethyl-phenyl)-amine] |
